Like-named read-outs stand apart in the source and are kept apart here.
How the values were obtained:
Assay type in all cases: cell-based, human
HCT-116 = assay: XTT cytotoxicity assay; settings: average ± standard deviation of 2-4 independent assays, read-out: Inhibition of Cancer Cell Proliferation (IC50) HCT-116
Procedure: (§1) In initial experiments, compounds 4a-g and 7c-g were evaluated for their cytotoxicity against human breast cancer cell lines MCF-7 and MDA-MB-468 and human colon cancer cell line HCT-116. The makaluvamine compounds provided in Table 2 were also evaluated for their cytotoxicity against human breast cancer cell lines MCF-7. Compound nos. 8 and 27-33 were not evaluated in this experiment. Cells were obtained from ATCC (Manassas, Va.). For each derivative the IC50 value was determined using data generated from 2-4 independent tetrazolium-based (XTT) cytotoxicity assays (R & D Systems Inc., Minneapolis, Minn.) according to the manufacturer's instructions. […] MCF-7, MDA-MD-468 and HCT-116 cells were grown at 37 degrees C. in a humidified atmosphere with complete growth media supplemented with fetal bovine serum. Growth media was changed 2-3 times per week as required.

MDA-MB-468 = assay: XTT cytotoxicity assay; settings: average ± standard deviation of 2-4 independent assays, read-out: Inhibition of Cancer Cell Proliferation (IC50) MDA-MB-468
Procedure: as §1

MCF-7 = assay: XTT cytotoxicity assay; settings: XTT
Procedure: as §1

MCF7 cells = assay: MTT growth inhibition assay; settings: for IC50: Homo sapiens, read-out: Growth inhibitory activity (IC50) in MCF7 cells
Procedure: The cell lines were obtained from the American Type Culture Collection (Rockville, Md.) and were grown as follows: MCF-7 (p53 wt) breast cancer cells were grown in DMEM media containing 1 mM non-essential amino acids, Earle's BSS, 1 mM Na pyruvate, and 10 mg/L bovine insulin.
All media contained 10% FBS and 1% penicillin/streptomycin unless otherwise specified. The effects of disclosed compounds on human cancer cell growth, expressed as the percentage of cell survival, were determined by the MTT [3-(4,5-Dimethyl-2-thiazolyl)-2,5-diphenyl-2H-tetrazolium bromide] assay. Cells were grown in 96-well plates and exposed to the test compounds (0, 0.01, 0.1, 1, 10, 100 μM) for 72 hr followed by addition of 10 μL MTT solution (5 mg/mL; Sigma; St. Louis, Mo.) to each well. The plates were incubated for 2-4 hr at 37° C. The supernatant was then removed and formazan crystals were dissolved with 100 μL of DMSO. The absorbance at 570 nm was recorded with an OPTImax microplate reader (Molecular Devices; Sunnyvale, Calif.). The cell survival percentages were calculated by dividing the mean OD of compound containing wells by that of DMSO-control wells. Three separate experiments were accomplished to determine the IC50.

p21 = assay: Protein expression, Western blot in MCF-7 cells; settings: 1 μM, 6 h (FIG. 4A)
Procedure: (§2) In FIG. 4A, MCF-7 cells were exposed to 1 μM concentration of the indicated compounds for 6 hours. Western blots were probed with antibodies specific for the proteins indicated. Numbers below each lane show densitometry readings for each lane as compared to control. […] Western blots were probed with antibodies specific for the proteins indicated.
(§3) To determine the disclosed compounds effect on protein expression in human breast cancer cells, cultured MCF-7 cells were exposed to various concentrations of the test compounds for 6 h (FIG. 4A) or 24 h (FIG. 4B). Cell lysates were fractionated with identical amounts of protein by SDS-PAGE and transferred to Bio-Rad trans-Blot nitrocellulose membranes (Bio-Rad Laboratories, Hercules, Calif.). The nitrocellulose membrane was incubated in blocking buffer (Tris-buffered saline containing 0.1% Tween 20 and 5% nonfat milk) for 1 h at room temperature, then with the appropriate primary antibody overnight at 4° C. or 2 h at room temperature with gentle shaking. Finally, the membrane was washed three times with the washing buffer (Tris-buffered saline containing 0.1% Tween 20) for 15 min, incubated with goat anti mouse/rabbit IgG-horseradish peroxidase-conjugated antibody (Bio-Rad) for 1 h at room temperature, and washed again (in triplicate). The protein of interest was detected by enhanced chemiluminescence reagents from PerkinElmer LAS, Inc (Boston, Mass.).

p53 = assay: Protein expression, Western blot in MCF-7 cells; settings: 1 μM, 6 h (FIG. 4A)
Procedure: as §2, §3

MDM2 = assay: Protein expression, Western blot in MCF-7 cells; settings: 1 μM, 6 h (FIG. 4A)
Procedure: as §2, §3

[1] = average ± standard deviation of 2-4 independent assays, read-out: Inhibition of Cancer Cell Proliferation (IC50) MCF-7
[2] = Homo sapiens, MCF7, Table 2, read-out: IC50 (μM) MCF-7
[3] = Table 2, read-out: IC50 (μM) MCF-7

Cc1ccc(S(=O)(=O)n2cc3c4c2C(=O)C(NCCc2c[nH]c5ccccc25)=CC4=NCC3)cc1 [Compound 7g]
IC50 (HCT-116): 800 ± 300 nM
IC50 (MDA-MB-468): 1400 ± 900 nM
IC50 (MCF-7; [1]): 1.2 ± 0.03 µM

O=C(O)C(F)(F)F.O=C1C(NCCc2ccc(F)cc2)=CC2=NCCc3c[nH]c1c32 [Compound 30]
IC50 (MCF7 cells; MCF7, Table 5, MTT, 72 hr): 787 nM
Growth inhibitory activity (IC50) in MCF7 cells (MCF7 cells; Table 5, MTT, 72 hr): nM range
expression of p21 (p21): increased the expression
expression of p53 (p53): increased the expression

O=C(O)C(F)(F)F.O=C1C(NCCc2ccc(Cl)c(Cl)c2)=CC2=NCCc3c[nH]c1c32 [Compound 26]
IC50 (MCF7 cells; MCF7, 72 h): 495 nM
Growth inhibitory activity (IC50) in MCF7 cells (MCF7 cells; Table 5, MTT, 72 hr): nM range
expression of p21 (p21): increased the expression
expression of p53 (p53): increased the expression

Cc1ccc(S(=O)(=O)n2cc3c4c2C(=O)C(NCCc2cc(Br)c(O)c(Br)c2)=CC4=NCC3)cc1 [Compound 7f]
IC50 (HCT-116): 1000 ± 200 nM
IC50 (MDA-MB-468): 1500 ± 900 nM
IC50 (MCF-7; [1]): 2.3 ± 1.1 µM

Cc1ccc(CNC2=CC3=NCCc4c[nH]c(c43)C2=O)cc1 [Compound 10]
IC50 (MCF-7; [2]): 1 to 5 µM
IC50 (MCF-7; [3]): 1.69 µM

Cc1ccc(CCNC2=CC3=NCCc4c[nH]c(c43)C2=O)cc1.O=C(O)C(F)(F)F [Compound 12]
IC50 (MCF7 cells; MCF7, Table 5, MTT, 72 hr): 833 nM
Growth inhibitory activity (IC50) in MCF7 cells (MCF7 cells; Table 5, MTT, 72 hr): nM range
expression of MDM2 (MDM2): inhibited the expression
expression of p21 (p21): decreased the expression
expression of p53 (p53): increased the expression

Cc1ccc(S(=O)(=O)n2cc3c4c2C(=O)C(NCc2ccc(Cl)cc2)=CC4=NCC3)cc1.O=C(O)C(F)(F)F [Compound 21]
IC50 (MCF-7; [2]): < 1 µM
IC50 (MCF-7; [3]): 0.83 µM
IC50 (MCF7 cells; MCF7, Table 5, MTT, 72 hr): 774 nM
Growth inhibitory activity (IC50) in MCF7 cells (MCF7 cells; Table 5, MTT, 72 hr): nM range
expression of MDM2 (MDM2): inhibited the expression
expression of p21 (p21): decreased the expression
expression of p53 (p53): decreased the expression

COc1ccc(CNC2=CC3=NCCc4cn(S(=O)(=O)c5ccc(C)cc5)c(c43)C2=O)cc1 [Compound 13]
IC50 (MCF-7; [2]): 1 to 5 µM
IC50 (MCF-7; [3]): 1.02 µM

O=C1C(NCc2ccc(Cl)cc2)=CC2=NCCc3c[nH]c1c32 [Compound 22]
IC50 (MCF-7; [2]): 1 to 5 µM
IC50 (MCF-7; [3]): 1.33 µM

O=C(O)C(F)(F)F.O=C1C(NCCc2ccc([N+](=O)[O-])cc2)=CC2=NCCc3c[nH]c1c32 [Compound 8]
IC50 (MCF7 cells; MCF7, Table 5, MTT, 72 hr): 427 nM
Growth inhibitory activity (IC50) in MCF7 cells (MCF7 cells; Table 5, MTT, 72 hr): nM range
expression of MDM2 (MDM2): inhibited the expression
expression of p21 (p21): decreased the expression
expression of p53 (p53): decreased the expression

Cc1ccc(S(=O)(=O)n2cc3c4c2C(=O)C(NCCc2ccc(F)cc2)=CC4=NCC3)cc1.O=C(O)C(F)(F)F [Compound 29]
IC50 (MCF7 cells; MCF7, Table 5, MTT, 72 hr): 1920 nM
Growth inhibitory activity (IC50) in MCF7 cells (MCF7 cells; Table 5, MTT, 72 hr): μM range
expression of p21 (p21): increased the expression
expression of p53 (p53): increased the expression

COC1=CC(CNC2=CC3=NCCc4c[nH]c(c43)C2=O)=CC(OC)C1OC.O=C(O)C(F)(F)F (stereo not shown) [Compound 4]
IC50 (MCF-7; [2]): 30.5 µM
IC50 (MCF7 cells; MCF7, Table 5, MTT, 72 hr): 515 nM
expression of p53 (p53): increased the expression

Cc1ccc(S(=O)(=O)n2cc3c4c2C(=O)C(NCCc2ccc(Cl)cc2)=CC4=NCC3)cc1 [Compound 23]
IC50 (MCF-7; [2]): 1 to 5 µM
IC50 (MCF-7; [3]): 1.55 µM

Cc1ccc(CNC2=CC3=NCCc4cn(S(=O)(=O)c5ccc(C)cc5)c(c43)C2=O)cc1 [Compound 9]
IC50 (MCF-7; [2]): 1 to 5 µM
IC50 (MCF-7; [3]): 1.48 µM

Cc1ccc(S(=O)(=O)n2cc3c4c2C(=O)C(NCCc2ccccc2)=CC4=NCC3)cc1 [Compound 7d]
IC50 (HCT-116): 500 nM
IC50 (MDA-MB-468): 800 ± 100 nM
IC50 (MCF-7; [1]): 1.5 ± 0.1 µM

COc1ccc(CCNC2=CC3=NCCc4cn(S(=O)(=O)c5ccc(C)cc5)c(c43)C2=O)cc1OC [Compound 19]
IC50 (MCF-7; [2]): < 1 µM
IC50 (MCF-7; [3]): > 1 µM

COc1ccc(CNC2=CC3=NCCc4c[nH]c(c43)C2=O)cc1OC [Compound 18]
IC50 (MCF-7; [2]): 5 to 15 µM
IC50 (MCF-7; [3]): 5.98 µM

Cc1ccc(S(=O)(=O)n2cc3c4c2C(=O)C(NCCc2ccc5c(c2)OCO5)=CC4=NCC3)cc1.O=C(O)C(F)(F)F [Compound 5]
IC50 (MCF7 cells; MCF7, Table 5, MTT, 72 hr): 1620 nM
Growth inhibitory activity (IC50) in MCF7 cells (MCF7 cells; Table 5, MTT, 72 hr): μM range
expression of p21 (p21): increased the expression
expression of p53 (p53): increased the expression

Cc1ccc(CCNC2=CC3=NCCc4cn(S(=O)(=O)c5ccc(C)cc5)c(c43)C2=O)cc1 [Compound 11]
IC50 (MCF-7; [2]): 1 to 5 µM
IC50 (MCF-7; [3]): 1.47 µM

COC1=CC(CNC2=CC3=NCCc4cn(S(=O)(=O)c5ccc(C)cc5)c(c43)C2=O)=CC(OC)C1OC (stereo not shown) [Compound 3]
IC50 (MCF-7; [2]): < 1 µM
IC50 (MCF-7; [3]): 0.96 µM

O=C(O)C(F)(F)F.O=C1C(NCc2ccc3c(c2)OCO3)=CC2=NCCc3c[nH]c1c32 [Compound 2]
IC50 (MCF-7; [2]): 5 to 15 µM
IC50 (MCF-7; [3]): 5.22 µM
IC50 (MCF7 cells; MCF7, Table 5, MTT, 72 hr): 809 nM
Growth inhibitory activity (IC50) in MCF7 cells (MCF7 cells; Table 5, MTT, 72 hr): nM range
expression of p21 (p21): decreased the expression
expression of p53 (p53): increased the expression

Cc1ccc(S(=O)(=O)n2cc3c4c2C(=O)C(NCCc2ccc([N+](=O)[O-])cc2)=CC4=NCC3)cc1 [Compound 7]
IC50 (MCF-7; [2]): < 1 µM
IC50 (MCF-7; [3]): > 1 µM

COc1ccc(CNC2=CC3=NCCc4cn(S(=O)(=O)c5ccc(C)cc5)c(c43)C2=O)cc1OC.O=C(O)C(F)(F)F [Compound 17]
IC50 (MCF-7; [2]): < 1 µM
IC50 (MCF-7; [3]): 0.65 µM
IC50 (MCF7 cells; MCF7, Table 5, MTT, 72 hr): 1010 nM
Growth inhibitory activity (IC50) in MCF7 cells (MCF7 cells; Table 5, MTT, 72 hr): μM range
expression of p21 (p21): increased the expression
expression of p53 (p53): increased the expression

Cc1ccc(S(=O)(=O)n2cc3c4c2C(=O)C(NCc2ccc5c(c2)OCO5)=CC4=NCC3)cc1.O=C(O)C(F)(F)F [Compound 1]
IC50 (MCF-7; [2]): < 1 µM
IC50 (MCF-7; [3]): 0.78 µM
expression of p21 (p21): increased the expression

COc1ccc(CCNC2=CC3=NCCc4c[nH]c(c43)C2=O)cc1.O=C(O)C(F)(F)F [Compound 16]
IC50 (MCF7 cells; MCF7, Table 5, MTT, 72 hr): 200 nM
Growth inhibitory activity (IC50) in MCF7 cells (MCF7 cells; Table 5, MTT, 72 hr): nM range
expression of MDM2 (MDM2): inhibited the expression
expression of p21 (p21): decreased the expression
expression of p53 (p53): decreased the expression

COc1ccc(CCNC2=CC3=NCCc4cn(S(=O)(=O)c5ccc(C)cc5)c(c43)C2=O)cc1.O=C(O)C(F)(F)F [Compound 15]
IC50 (MCF-7; [2]): 1 to 5 µM
IC50 (MCF-7; [3]): 1.33 µM
IC50 (MCF7 cells; MCF7, Table 5, MTT, 72 hr): 1050 nM
Growth inhibitory activity (IC50) in MCF7 cells (MCF7 cells; Table 5, MTT, 72 hr): μM range
expression of MDM2 (MDM2): inhibited the expression
expression of p21 (p21): decreased the expression
expression of p53 (p53): decreased the expression

O=C(O)C(F)(F)F.O=C1C(NCCc2ccc(Cl)cc2)=CC2=NCCc3c[nH]c1c32 [Compound 24]
IC50 (MCF7 cells; MCF7, Table 5, MTT, 72 hr): 584 nM
Growth inhibitory activity (IC50) in MCF7 cells (MCF7 cells; Table 5, MTT, 72 hr): nM range
expression of MDM2 (MDM2): inhibited the expression
expression of p21 (p21): decreased the expression
expression of p53 (p53): increased the expression
